Test results taken from the NIST ThermoML archive (doi:10.1016/j.jct.2016.03.026).

Experiment: xn = mol fraction of the nth substance listed
Conditions: 293.15 K, Fluid (supercritical or subcritical phases), Vibrating tube method, x1 = 0.97

O=C=O [carbon dioxide] + CO
Conditions	mass density [kg/m3]
8600 kPa	847.4
8625 kPa	847.69
8650 kPa	848.04
8675 kPa	848.37
8700 kPa	848.68
8725 kPa	849.03
8750 kPa	849.37
8775 kPa	849.67
8800 kPa	849.99
8825 kPa	850.29
8850 kPa	850.6
8875 kPa	850.92
8900 kPa	851.22
8925 kPa	851.5
8950 kPa	851.81
8975 kPa	852.08
9000 kPa	852.41
9025 kPa	852.71
9050 kPa	852.98
9075 kPa	853.28
9100 kPa	853.57
9125 kPa	853.85
9150 kPa	854.08
9175 kPa	854.24
9200 kPa	854.32
9225 kPa	854.58
9250 kPa	854.9
9275 kPa	855.22
9300 kPa	855.55
9325 kPa	855.89
9350 kPa	856.22
9375 kPa	856.46
9400 kPa	856.82
9425 kPa	857.09
9450 kPa	857.44
9475 kPa	857.69
9500 kPa	858.02
9525 kPa	858.28
9550 kPa	858.59
9575 kPa	858.84
9600 kPa	859.17
9625 kPa	859.48
9650 kPa	859.74
9675 kPa	860.01
9700 kPa	860.28
9725 kPa	860.54
9750 kPa	860.76
9775 kPa	860.99
9800 kPa	861.24
9825 kPa	861.54
9850 kPa	861.78
9875 kPa	862
9900 kPa	862.27
9925 kPa	862.54
9950 kPa	862.76
9975 kPa	863.01
10000 kPa	863.3
10025 kPa	863.5
10050 kPa	863.76
10075 kPa	864
10100 kPa	864.22
10125 kPa	864.49
10150 kPa	864.74
10175 kPa	865.06
10200 kPa	865.34
10225 kPa	865.63
10250 kPa	865.87
10275 kPa	866.12
10300 kPa	866.45
10325 kPa	866.67
10350 kPa	866.94
10375 kPa	867.18
10400 kPa	867.43
10425 kPa	867.68
10450 kPa	867.99
10475 kPa	868.24
10500 kPa	868.43
10525 kPa	868.74
10550 kPa	868.99
10575 kPa	869.23
10600 kPa	869.48
10625 kPa	869.76
10650 kPa	869.97
10675 kPa	870.3
10700 kPa	870.54
10725 kPa	870.79
10750 kPa	871.03
10775 kPa	871.28
10800 kPa	871.52
10825 kPa	871.77
10850 kPa	872.01
10875 kPa	872.27
10900 kPa	872.51
10925 kPa	872.75
10950 kPa	873
10975 kPa	873.24
11000 kPa	873.49
11025 kPa	873.73
11050 kPa	873.98
11075 kPa	874.22
11100 kPa	874.47
11125 kPa	874.72
11150 kPa	874.96
11175 kPa	875.21
11200 kPa	875.45
11225 kPa	875.7
11250 kPa	875.94
11275 kPa	876.2
11300 kPa	876.43
11325 kPa	876.68
11350 kPa	876.93
11375 kPa	877.16
11400 kPa	877.38
11425 kPa	877.58
11450 kPa	877.85
11475 kPa	878.07
11500 kPa	878.33
11525 kPa	878.56
11550 kPa	878.81
11575 kPa	879
11600 kPa	879.3
11625 kPa	879.46
11650 kPa	879.71
11675 kPa	879.95
11700 kPa	880.2
11725 kPa	880.38
11750 kPa	880.63
11775 kPa	880.86
11800 kPa	881.1
11825 kPa	881.34
11850 kPa	881.54
11875 kPa	881.77
11900 kPa	882
11925 kPa	882.25
11950 kPa	882.46
11975 kPa	882.66
12000 kPa	882.9
12025 kPa	883.12
12050 kPa	883.38
12075 kPa	883.57
12100 kPa	883.79
12125 kPa	884.05
12150 kPa	884.26
12175 kPa	884.46
12200 kPa	884.7
12225 kPa	884.95
12250 kPa	885.18
12275 kPa	885.36
12300 kPa	885.6
12325 kPa	885.85
12350 kPa	886.09
12375 kPa	886.26
12400 kPa	886.49
12425 kPa	886.67
12450 kPa	886.91
12475 kPa	887.16
12500 kPa	887.33
12525 kPa	887.57
12550 kPa	887.8
12575 kPa	887.98
12600 kPa	888.22
12625 kPa	888.41
12650 kPa	888.63
12675 kPa	888.88
12700 kPa	889.11
12725 kPa	889.29
12750 kPa	889.53
12775 kPa	889.77
12800 kPa	889.94
12825 kPa	890.19
12850 kPa	890.37
12875 kPa	890.6
12900 kPa	890.84
12925 kPa	891.01
12950 kPa	891.25
12975 kPa	891.46
13000 kPa	891.66
13025 kPa	891.9
13050 kPa	892.08
13075 kPa	892.32
13100 kPa	892.5
13125 kPa	892.74
13150 kPa	892.96
13175 kPa	893.13
13200 kPa	893.3
13225 kPa	893.53
13250 kPa	893.74
13275 kPa	893.95
13300 kPa	894.19
13325 kPa	894.36
13350 kPa	894.53
13375 kPa	894.75
13400 kPa	894.97
13425 kPa	895.18
13450 kPa	895.34
13475 kPa	895.52
13500 kPa	895.75
13525 kPa	895.96
13550 kPa	896.13
13575 kPa	896.33
13600 kPa	896.51
13625 kPa	896.67
13650 kPa	896.86
13675 kPa	897.09
13700 kPa	897.29
13725 kPa	897.47
13750 kPa	897.68
13775 kPa	897.85
13800 kPa	898.05
13825 kPa	898.26
13850 kPa	898.41
13875 kPa	898.62
13900 kPa	898.8
13925 kPa	898.97
13950 kPa	899.2
13975 kPa	899.38
14000 kPa	899.55
14025 kPa	899.76
14050 kPa	899.94
14075 kPa	900.17
14100 kPa	900.34
14125 kPa	900.51
14150 kPa	900.7
14175 kPa	900.95
14200 kPa	901.13
14225 kPa	901.31
14250 kPa	901.48
14275 kPa	901.66
14300 kPa	901.83
14325 kPa	902.05
14350 kPa	902.18
14375 kPa	902.38
14400 kPa	902.56
14425 kPa	902.77
14450 kPa	902.92
14475 kPa	903.13
14500 kPa	903.28
14525 kPa	903.44
14550 kPa	903.67
14575 kPa	903.82
14600 kPa	904.05
14625 kPa	904.2
14650 kPa	904.42
14675 kPa	904.58
